Patent US20140065706A1, “MATERIALS AND METHODS FOR MOBILIZING CELLS INCLUDING CD34+, HEMATOPOIETIC COLONY FORMING, AND ENDOTHELIAL COLONY FORMING CELLS” (Indiana University Research and Technology Corp., priority 2010, published 2014)

Key:
[1] = tested on: circulating endothelial colony forming cells (ECFC); assay: Circulating endothelial colony forming cells (ECFC) in human volunteers before and after meloxicam; type: in vivo; conditions: post 5 day regimen; before treatment only 4/7 had detectable ECFC
Method: For analysis of circulating ECFC, PB mononuclear cells were plated in media at 37° C., 5% CO2, 5% O2 in 6 well culture plates coated with type 1 collagen. Media was be replaced every other day for 7-14 days at which time the adherent colonies of endothelial cells (EC) are removed with Trypsin and replated in collagen coated culture wells at a single cell per well. After 14 days each well is visually examined to determine whether there are 2 or more cells per well and if so, the total number of EC counted.

[2] = tested on: progenitors from the bone marrow; assay: Mobilization of progenitors from the bone marrow (NSAID comparison); conditions: in vivo

Cc1cnc(NC(=O)C2=C(O)c3ccccc3S(=O)(=O)N2C)s1 [Meloxicam, meloxicam]
volunteers with detectable ECFC in 40 mL of blood post treatment [1]: 7/7

CC(=O)Oc1ccccc1C(=O)O [aspirin]
ability to mobilize progenitors from the bone marrow [2]: highly effective

Cc1onc(-c2ccccc2)c1-c1ccc(S(N)(=O)=O)cc1 [valdecoxib]
ability to mobilize progenitors from the bone marrow [2]: unable to mobilize
